# Measured values as given in US20090130085A1, “Amidino-Compounds for Stabilizing Factor VII Polypeptide Formulations” (NOVO NORDISH HEALTHCARE AG, priority 2005, published 2009).
# Biological target: T1, rhFVIIa (Homo sapiens, UniProt P08709)
# T1 construct: Typically, Factor VII is cleaved between amino acid residues 152 and 153 to yield Factor VIIa
# T1 sequence (P08709 61-212 limits assumed): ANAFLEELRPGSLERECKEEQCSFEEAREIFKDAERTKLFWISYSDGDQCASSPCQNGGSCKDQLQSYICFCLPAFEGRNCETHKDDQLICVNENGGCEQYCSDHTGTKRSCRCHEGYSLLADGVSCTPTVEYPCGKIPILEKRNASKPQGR
# T1 sequence (P08709 213-466 limits assumed): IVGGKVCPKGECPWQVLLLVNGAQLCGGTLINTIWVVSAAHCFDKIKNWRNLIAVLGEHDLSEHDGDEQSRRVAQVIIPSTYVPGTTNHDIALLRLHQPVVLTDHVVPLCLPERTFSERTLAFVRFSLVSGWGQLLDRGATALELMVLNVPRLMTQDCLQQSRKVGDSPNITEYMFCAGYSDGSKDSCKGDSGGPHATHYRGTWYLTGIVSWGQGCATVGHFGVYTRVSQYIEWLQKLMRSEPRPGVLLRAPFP
# Test: Clot assay / one-stage coagulation assay of stored rhFVIIa formulations
# Type: biochemical
# Conditions: 1 mM compound in 1.0 mg/mL rhFVIIa formulation, pH 6.5, stored at 5° C. and 25° C.
# Description: The biological activity of Factor VII (as Factor VIIa) in blood clotting derives from its ability to (i) bind to tissue factor (TF) and (ii) catalyze the proteolytic cleavage of Factor IX or Factor X to produce activated Factor IX or X (Factor IXa or Xa, respectively). Human Factor VIIa biological activity may be quantified by an assay measuring the ability of a preparation to promote blood clotting using Factor VII-deficient plasma and thromboplastin, as described, e.g., in U.S. Pat. No. 5,997,864. In this assay, biological activity is expressed as the reduction in clotting time relative to a control sample and is converted to “Factor VII units” by comparison with a pooled human […] standard containing 1 unit/ml Factor VII activity. […] Coagulation times (clotting times) are measured and compared to a standard curve using a reference standard in a parallel line assay. Alternatively, Factor VIIa biological activity may be quantified by (i) measuring the ability of Factor VIIa to produce Factor Xa in a system comprising TF embedded in a lipid membrane and Factor X. (Persson et al., J. Biol. Chem. 272:19919-19924, 1997); (ii) measuring Factor X hydrolysis in an aqueous system; (iii) measuring its physical binding to TF using an instrument based on surface plasmon resonance (Persson, FEBS Letts. 413:359-363, 1997) and (iv) measuring hydrolysis of a synthetic substrate. […]
smiles,measurement,value
"COc1cccc([C@H](C)NC(=O)COC(=O)Nc2ccc(C(=N)N)cc2)c1 [Example 1, (S)-(4-carbamimidoylphenyl)carbamic acid [1-(3-methoxyphenyl)ethylcarbamoyl]methyl ester]",stabilizing effect with respect to retention of activity of FVIIa,marked stabilizing effect
